Laboratory results from patent US12331052B2, “Organic compounds” (INTRA-CELLULAR THERAPIES, INC., priority 2018, dated 2025).
Values joined by “and” are separate entries in the source; they are usually repeats but may differ in a detail not shown here. Equal entries are not always repeated. Where two headings read alike, the source gives them in different places.

What was measured:
[1] = tested on: tyrosine hydroxylase phosphorylation at Ser40; assay: CNS phosphoprotein profile, nucleus accumbens: TH; format: in vivo, mice; settings: for increase in TH phosphorylation: mice nucleus accumbens, haloperidol 2 mg/kg, relative to vehicle-treated control
Experimental: (§1) A comprehensive molecular phosphorylation study is also carried out to examine the central nervous system (CNS) profile of the compound of Example 1. The extent of protein phosphorylation for selected key central nervous system proteins is measured in mice nucleus accumbens.
(§2) Mice were killed 30 minutes to 2 hours post-injection by focused microwave cranial irradiation, which preserves brain phosphoprotein as it exists at the time of death. Nucleus accumbens was then dissected from each mouse brain, sliced and frozen in liquid nitrogen. Samples were further prepared for phosphoprotein analysis via SDS-PAGE electrophoresis followed by phosphoprotein-specific immunoblotting, as described in Zhu H, et al., Brain Res. 2010 Jun. 25; 1342:11-23. Phosphorylation at each site was quantified, normalized to total levels of the protein (non-phosphorylated), and expressed as percent of the level of phosphorylation in vehicle-treated control mice.

[2] = tested on: NR2B phosphorylation at Tyr1472; assay: CNS phosphoprotein profile, nucleus accumbens: NR2B; format: in vivo, mice; settings: 3 mg/kg; at 30-60 minutes
Experimental: as §1, §2

mice = assay: Mouse marble-burying study (OCD model); format: in vivo; settings: 0.3 mg/kg orally 30 minutes prior, of 15 marbles
Description: The marble burying test is used to measure repetitive and anxiety-related behavior in rodents. It is based on the observation that rats and mice will bury either harmful or harmless objects in their bedding, and it has been used as an animal model to measure the effect of pharmacological interventions in treatment of repetitive behavior disorders, such as OCD.
MPEP is a selective mGluR5 glutamate receptor antagonist. […] Mice in groups (1) are orally administered the vehicle, and mice in group (4) are given an intraperitoneal injection of MPEP just prior to the start of the test.
The test is conducted in rectangular cages with 4-5 cm of wood chip bedding in a room with the window shades lowered and the door closed to minimize distractions. Fifteen clean marbles are evenly spaced on top of the bedding in three rows of five marbles. One mouse is placed in each cage. The mouse in the cage is left undisturbed for 30 minutes. At the end of the test, the mouse is removed and the number of marbles buried to at least ⅔ of their depth is counted.

C57 mice = settings: mouse, in vivo
rats [3] = assay: Pulmonary function in rats; format: in vivo; settings: for RR: 60 minutes
[4] = male, Sprague-Dawley, rat, in vivo, sc, 0.3 mg/kg
[5] = rat, in vivo
rats [6] = settings: for Motility Ratio: 30 minutes prior to charcoal bolus
male Sprague-Dawley rats = assay: Rat tolerance/dependence study (28 day)
5-HT2A = 5-HT2A (Homo sapiens, UniProt P28223); assay: biochemical; format: binding; settings: read-out: maximum inhibition
Chain of 5-HT2A (P28223 whole entry): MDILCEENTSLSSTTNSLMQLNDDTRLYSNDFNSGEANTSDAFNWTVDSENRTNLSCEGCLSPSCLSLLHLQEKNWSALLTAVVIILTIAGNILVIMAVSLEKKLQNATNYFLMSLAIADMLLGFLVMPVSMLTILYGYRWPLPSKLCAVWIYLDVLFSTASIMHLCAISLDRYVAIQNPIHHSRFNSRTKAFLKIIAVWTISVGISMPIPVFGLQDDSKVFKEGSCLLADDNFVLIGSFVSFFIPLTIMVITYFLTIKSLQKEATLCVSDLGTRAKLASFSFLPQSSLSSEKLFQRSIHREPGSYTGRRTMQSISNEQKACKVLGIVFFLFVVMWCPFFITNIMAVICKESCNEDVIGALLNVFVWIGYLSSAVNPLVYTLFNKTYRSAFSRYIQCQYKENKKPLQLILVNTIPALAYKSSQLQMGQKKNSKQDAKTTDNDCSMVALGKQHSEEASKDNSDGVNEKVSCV

D2 = D2 (Homo sapiens, UniProt P14416); assay: Receptor binding, D2; settings: @ 100 nM; read-out: maximum inhibition
Chain of D2 (P14416 1-414 isoform P14416-2): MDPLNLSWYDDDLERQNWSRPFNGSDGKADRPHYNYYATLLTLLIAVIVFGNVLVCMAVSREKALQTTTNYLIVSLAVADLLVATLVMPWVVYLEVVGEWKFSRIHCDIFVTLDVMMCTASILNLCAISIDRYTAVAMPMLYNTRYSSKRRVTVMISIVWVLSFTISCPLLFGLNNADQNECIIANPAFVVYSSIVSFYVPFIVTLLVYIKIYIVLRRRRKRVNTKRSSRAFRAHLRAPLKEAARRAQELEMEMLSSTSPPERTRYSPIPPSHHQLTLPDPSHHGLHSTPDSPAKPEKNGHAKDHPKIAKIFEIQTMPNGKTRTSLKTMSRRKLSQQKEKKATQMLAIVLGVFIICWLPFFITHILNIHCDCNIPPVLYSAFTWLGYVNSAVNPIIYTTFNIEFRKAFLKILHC

D1 = D1 (Homo sapiens, UniProt P21728); assay: Receptor binding, D1; settings: @ 100 nM; read-out: maximum inhibition
Chain of D1 (P21728 whole entry): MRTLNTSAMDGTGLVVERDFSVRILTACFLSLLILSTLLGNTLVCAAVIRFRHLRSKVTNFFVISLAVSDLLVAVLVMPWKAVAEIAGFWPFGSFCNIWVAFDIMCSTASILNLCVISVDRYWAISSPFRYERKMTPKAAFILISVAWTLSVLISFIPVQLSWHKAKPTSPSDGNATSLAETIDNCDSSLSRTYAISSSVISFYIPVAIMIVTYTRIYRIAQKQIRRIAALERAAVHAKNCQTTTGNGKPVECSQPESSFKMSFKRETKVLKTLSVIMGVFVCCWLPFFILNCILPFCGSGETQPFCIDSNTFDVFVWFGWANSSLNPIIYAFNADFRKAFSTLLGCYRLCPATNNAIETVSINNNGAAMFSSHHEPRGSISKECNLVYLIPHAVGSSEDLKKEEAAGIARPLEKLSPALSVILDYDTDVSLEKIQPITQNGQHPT

SERT = SERT (Homo sapiens, UniProt P31645); assay: biochemical; format: binding; settings: read-out: maximum inhibition
Chain of SERT (P31645 whole entry, species assumed): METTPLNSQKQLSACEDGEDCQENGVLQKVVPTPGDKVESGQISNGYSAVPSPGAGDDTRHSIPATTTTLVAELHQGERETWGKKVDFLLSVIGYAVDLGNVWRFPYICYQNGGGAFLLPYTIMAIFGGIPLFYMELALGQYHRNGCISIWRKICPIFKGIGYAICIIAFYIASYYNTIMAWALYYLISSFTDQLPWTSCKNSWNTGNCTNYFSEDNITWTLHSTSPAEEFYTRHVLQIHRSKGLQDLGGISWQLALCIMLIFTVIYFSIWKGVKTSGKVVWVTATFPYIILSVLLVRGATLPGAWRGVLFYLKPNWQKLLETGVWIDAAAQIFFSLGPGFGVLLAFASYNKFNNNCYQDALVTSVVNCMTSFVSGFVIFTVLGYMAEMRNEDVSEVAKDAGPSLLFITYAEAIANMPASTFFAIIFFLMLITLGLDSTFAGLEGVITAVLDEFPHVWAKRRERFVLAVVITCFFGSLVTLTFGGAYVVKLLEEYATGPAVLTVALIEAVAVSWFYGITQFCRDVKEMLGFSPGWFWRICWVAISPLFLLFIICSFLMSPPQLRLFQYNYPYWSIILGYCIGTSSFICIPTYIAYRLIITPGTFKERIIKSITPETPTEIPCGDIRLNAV

male C57BL/6J mice = settings: mouse, in vivo

O=C1CN2c3c(cccc3[C@@H]3CN(CCCOc4ccc(F)cc4)CC[C@@H]32)N1 [Example 1, (6bR,10aS)-8-(3-(4-fluorophenoxy)propyl)-6b,7,8,9,10,10a-hexahydro-1H-pyrido[3′,4′:4,5]pyrrolo[1,2,3-de]quinoxalin-2(3H)-one]
effect on tyrosine hydroxylase phosphorylation at Ser40 ([1]; 3 mg/kg, at 30 minutes or 60 minutes): no significant effect | effect on NR2B phosphorylation at Tyr1472 [2]: no significant effect | Marbles Buried (mice): 9.3 | Mean Behavior Rating (0-4) (C57 mice; po, 3 mg/kg): 0.9 and 0.8 and 1.5 | Mean Behavior Rating (0-4) (C57 mice; sc, 1 mg/kg): 1.0 and 1.9 and 1.1 | RR (rats [3]; 0.3 mg/kg SC): 181 breaths/min | RR (rats [3]; 1.0 mg/kg SC): 203 breaths/min | RR (rats [3]; 3.0 mg/kg SC): 190 breaths/min | respiratory rate, tidal volume and minute volume vs vehicle (rats [3]; 0.3, 1.0 and 3.0 mg/kg SC, 0, 15, 60, 120, 240 minutes): no significant differences | peak plasma concentrations [4]: 15 to 38 ng/mL | Bioavailability ([5]; iv, 1 mg/kg): 100% | t-1/2 ([5]; po, 10 mg/kg): 3.1 h | t-1/2 ([5]; sc, 3 mg/kg): 9.5 h | effect on gastrointestinal motility (rats [6]; at a dose up to 3 mg/kg): no significant effect | physical dependence upon cessation of dosing (male Sprague-Dawley rats; 0.3 and 3 mg/kg): not to produce a syndrome of physical dependence | tolerance during subcutaneous dosing for 28 days (male Sprague-Dawley rats; 0.3 and 3 mg/kg four times): does not produce tolerance | effect on animal body weight, food and water intake or body temperature (male Sprague-Dawley rats; 0.3 and 3 mg/kg s.c. four times per day, on-dose or withdrawal phase): no significant effect | main behavioral and physical signs (male Sprague-Dawley rats; higher dose (3 mg/kg)): hunched posture, subdued behavior, Straub tail, tail rattle and piloerection | predominant behavioral and physical effects, dosing phase (male Sprague-Dawley rats; repeated administration at 0.3 mg/kg): hunched posture, Straub tail and piloerection

O=C1CN2c3c(cccc3[C@@H]3CN(CCCc4n[nH]c5cc(F)ccc45)CC[C@@H]32)N1 [Example 2, (6bR,10aS)-8-(3-(6-fluoro-1H-indazol-3-yl)propyl)-6b,7,8,9,10,10a-hexahydro-1H-pyrido[3′,4′:4,5]pyrrolo[1,2,3-de]quinoxalin-2(3H)-one]
Motility Ratio (rats [6]; 0.3 mg/kg SC): 0.50 | Motility Ratio (rats [6]; 1 mg/kg SC): 0.55 | Motility Ratio (rats [6]; 3 mg/kg SC): 0.50

O=C1CN2c3c(cccc3[C@@H]3CN(CCCOc4cccc(F)c4)CC[C@@H]32)N1 [Example 20, (6bR,10aS)-8-(3-(3-fluorophenoxy)propyl)-6b,7,8,9,10,10a-hexahydro-1H-pyrido[3′,4′:4,5]pyrrolo[1,2,3-de]quinoxalin-2(3H)-one]
inhibition at 0.1 µM (5-HT2A): 79% | inhibition at 0.1 µM (D2): 14% | inhibition at 0.1 µM (D1): 32% | inhibition at 0.2 µM (SERT): 8%

O=C1CN2c3c(cccc3[C@@H]3CN(CCCOc4ccccc4F)CC[C@@H]32)N1 [Example 21, (6bR,10aS)-8-(3-(2-fluorophenoxy)propyl)-6b,7,8,9,10,10a-hexahydro-1H-pyrido[3′,4′:4,5]pyrrolo[1,2,3-de]quinoxalin-2(3H)-one]
inhibition at 0.1 µM (5-HT2A): 88% | inhibition at 0.1 µM (D2): 28% | inhibition at 0.1 µM (D1): 18% | inhibition at 0.2 µM (SERT): 5%

CC(C)N1C(=O)CN2c3c(cccc31)[C@@H]1CN(CCCOc3ccc(F)cc3)CC[C@@H]12 [Example 22, (6bR,10aS)-8-(3-(4-fluorophenoxy)propyl)-3-isopropyl-6b,7,8,9,10,10a-hexa-hydro-1H-pyrido[3′,4′:4,5]pyrrolo[1,2,3-de]quinoxalin-2(3H)-one]
inhibition at 0.1 µM (5-HT2A): 81% | inhibition at 0.1 µM (D2): 39% | inhibition at 0.1 µM (D1): 70% | inhibition at 0.2 µM (SERT): 11%

O=C1CN2c3c(cccc3[C@@H]3CN(CCCOc4ccc(I)cc4)CC[C@@H]32)N1 [Example 23, (6bR,10aS)-8-(3-(4-iodophenoxy)propyl)-6b,7,8,9,10,10a-hexahydro-1H-pyrido[3′,4′:4,5]pyrrolo[1,2,3-de]quinoxalin-2(3H)-one]
inhibition at 0.1 µM (5-HT2A): 81% | inhibition at 0.1 µM (D2): 14% | inhibition at 0.1 µM (D1): 3% | inhibition at 0.2 µM (SERT): 48%

O=C1CN2c3c(cccc3[C@@H]3CN(CCCOc4ccc(Br)cc4)CC[C@@H]32)N1 [Example 24, (6bR,10aS)-8-(3-(4-bromophenoxy)propyl)-6b,7,8,9,10,10a-hexahydro-1H-pyrido[3′,4′:4,5]pyrrolo[1,2,3-de]quinoxalin-2(3H)-one]
inhibition at 0.1 µM (5-HT2A): 72% | inhibition at 0.1 µM (D2): 8% | inhibition at 0.1 µM (D1): 3% | inhibition at 0.2 µM (SERT): 44%

Cc1ccc(OCCCN2CC[C@H]3[C@@H](C2)c2cccc4c2N3CC(=O)N4)cc1 [Example 25, (6bR,10aS)-8-(3-(p-tolyloxy)propyl)-6b,7,8,9,10,10a-hexahydro-1H-pyrido-[3′,4′:4,5]pyrrolo[1,2,3-de]quinoxalin-2(3H)-one]
inhibition at 0.1 µM (5-HT2A): 62% | inhibition at 0.1 µM (D2): 21% | inhibition at 0.1 µM (D1): 14% | inhibition at 0.2 µM (SERT): 10%

CN1CC[C@]23c4c5ccc(O)c4O[C@H]2[C@@H](O)C=C[C@H]3[C@H]1C5 [Morphine, morphine, reference compound]
reduction in gastric motility (rats [6]; 5 mg/kg SC): ~50%

C=CCN1CC[C@]23c4c5ccc(O)c4O[C@H]2C(=O)CC[C@@]3(O)[C@H]1C5 [Naloxone, naloxone]
Body Weight Loss (male C57BL/6J mice): 0.5% | Jumps (male C57BL/6J mice): 0 | Paw Tremors (male C57BL/6J mice): 0.87 | Total Number of Signs (male C57BL/6J mice): 2.2

O=C(CCCN1CCC(O)(c2ccc(Cl)cc2)CC1)c1ccc(F)cc1 [haloperidol]
increase in TH phosphorylation [1]: greater than 400%

Cc1nc2n(c(=O)c1CCN1CCC(c3noc4cc(F)ccc34)CC1)CCCC2 [risperidone]
increase in TH phosphorylation [1]: greater than 500%
